“And” between values parts separate entries of the source, which are not always exact repeats. Equal values may be shown once. Inconclusive results are not listed. *1 amine or outer side, *2 acyl side, *3 side chain or, on linkers, in order; H or OH if unused. Where a SMILES comes first, the peptide text is derived from it. Bridges are numbered along the chain shown (N, C = ends). Roman numbers before positions name the chains, in order. [ ]: non-standard residue; d: D form. Actinocin(9to1) = Cc1c2oc3c(C)ccc(C(=O)[*:1])c3nc-2c(C(=O)[*:2])c(N)c1=O; aThr = C[C@H](O)[C@H](N)C(=O)O; NMeV = CN[C@H](C(=O)O)C(C)C; Sar = CNCC(=O)O
System: BDF1 mice, colon carcinoma 38 sc, T/C %
Assay: NCI In Vivo Anticancer Drug Screen. Data for tumor model Colon Carcinoma 38 (subcutaneous) in B6D2F1 (BDF1) mice
Conditions: endpoint: median tumor weight (est.), higher = larger tumour
Method in brief: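 Mice with transplanted tumors are treated with compound or vehicle. Survival or tumor size is then measured in both groups. The ratio of treated to control gives the reported figure.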

[1] = dose: 100.0 mg/kg/injection, schedule: Q07DX002 (ip), vehicle: Klucel (hydroxypropylcellulose) (HPC)
[2] = dose: 200.0 mg/kg/injection, schedule: Q07DX002 (ip), vehicle: Klucel (hydroxypropylcellulose) (HPC)
[3] = dose: 25.0 mg/kg/injection, schedule: Q07DX002 (ip), vehicle: saline
[4] = dose: 50.0 mg/kg/injection, schedule: Q07DX002 (ip), vehicle: saline
[5] = dose: 200.0 mg/kg/injection, schedule: Q07DX002 (ip), vehicle: saline
[6] = dose: 12.5 mg/kg/injection, schedule: Q07DX002 (ip), vehicle: Klucel (hydroxypropylcellulose) (HPC)
[7] = dose: 25.0 mg/kg/injection, schedule: Q07DX002 (ip), vehicle: Klucel (hydroxypropylcellulose) (HPC)
[8] = dose: 50.0 mg/kg/injection, schedule: Q07DX002 (ip), vehicle: Klucel (hydroxypropylcellulose) (HPC)
[9] = dose: 800.0 mg/kg/injection, schedule: Q07DX002 (ip), vehicle: saline
[10] = dose: 12.5 mg/kg/injection, schedule: Q07DX002 (ip), vehicle: saline with Tween-80
[11] = dose: 50.0 mg/kg/injection, schedule: Q07DX002 (ip), vehicle: saline with Tween-80
[12] = dose: 400.0 mg/kg/injection, schedule: Q07DX002 (ip), vehicle: Klucel (hydroxypropylcellulose) (HPC)
[13] = dose: 200.0 mg/kg/injection, schedule: Q07DX002 (ip), vehicle: saline with Tween-80

Structure (SMILES): Cc1noc(N)c1N
- T/C (dose: 25.0 mg/kg/injection, schedule: Q07DX002 (ip), vehicle: water): 79 % of control
- T/C (dose: 50.0 mg/kg/injection, schedule: Q07DX002 (ip), vehicle: water): 82 % of control
- T/C (dose: 100.0 mg/kg/injection, schedule: Q07DX002 (ip), vehicle: water): 78 % of control
- T/C (dose: 200.0 mg/kg/injection, schedule: Q07DX002 (ip), vehicle: water): 101 % of control
- T/C (dose: 400.0 mg/kg/injection, schedule: Q07DX002 (ip), vehicle: water): 74 % of control
- T/C (dose: 800.0 mg/kg/injection, schedule: Q07DX002 (ip), vehicle: water): 95 % of control

Structure (SMILES): O=C(Cc1cccc2c(=O)cc(-c3ccccc3)oc12)OCCN1CCOCC1
- T/C [1]: 115 % of control
- T/C [2]: 92 % of control

Structure (SMILES): COC(=O)c1ccoc1
- T/C [3]: 105 % of control
- T/C [4]: 94 % of control
- T/C [5]: 118 % of control
- T/C (dose: 400.0 mg/kg/injection, schedule: Q07DX002 (ip), vehicle: saline): 112 % of control

Structure (SMILES): Cc1cc(NCCN(C(C)C)C(C)C)nc(/N=C(\N)Nc2ccc(Cl)c(C(F)(F)F)c2)n1
- T/C (dose: 2.5 mg/kg/injection, schedule: Q07DX002 (ip), vehicle: Klucel (hydroxypropylcellulose) (HPC)): 89 % of control
- T/C (dose: 10.0 mg/kg/injection, schedule: Q07DX002 (ip), vehicle: Klucel (hydroxypropylcellulose) (HPC)): 82 % of control
- T/C (dose: 20.0 mg/kg/injection, schedule: Q07DX002 (ip), vehicle: Klucel (hydroxypropylcellulose) (HPC)): 95 % of control
- T/C (dose: 40.0 mg/kg/injection, schedule: Q07DX002 (ip), vehicle: Klucel (hydroxypropylcellulose) (HPC)): 67 % of control

Structure (SMILES): C[C@]12CC[C@H]3[C@@H](CCC4=C[C@@H](OC5OCC(OC6OC(CO)C(O)C(O)C6O)C(O)C5O)CC[C@@]43C=O)[C@@]1(O)CCC2C1=CC(=O)OC1 (stereo partly drawn)
- T/C (dose: 0.31 mg/kg/injection, schedule: Q07DX003 (ip), vehicle: Klucel (hydroxypropylcellulose) (HPC)): 106 % of control
- T/C (dose: 1.25 mg/kg/injection, schedule: Q07DX003 (ip), vehicle: Klucel (hydroxypropylcellulose) (HPC)): 53 % of control
- T/C (dose: 2.5 mg/kg/injection, schedule: Q07DX003 (ip), vehicle: Klucel (hydroxypropylcellulose) (HPC)): 102 % of control
- T/C (dose: 5.0 mg/kg/injection, schedule: Q07DX003 (ip), vehicle: Klucel (hydroxypropylcellulose) (HPC)): 105 % of control
- T/C (dose: 10.0 mg/kg/injection, schedule: Q07DX003 (ip), vehicle: Klucel (hydroxypropylcellulose) (HPC)): 95 % of control

Structure (SMILES): CCc1ccc(C2=C(O)C(=O)C(c3ccccc3)=C(O)C2=O)cc1
- T/C [6]: 101 % of control
- T/C [7]: 81 % of control
- T/C [8]: 50 % of control

Structure (SMILES): CCOC(=O)Nc1cc2c(c(N)n1)N=C(c1ccccc1)CN2
- T/C (dose: 2.5 mg/kg/injection, schedule: Q07DX002 (ip), vehicle: saline with Tween-80): 66 % of control
- T/C (dose: 5.0 mg/kg/injection, schedule: Q07DX002 (ip), vehicle: saline with Tween-80): 73 % of control
- T/C (dose: 10.0 mg/kg/injection, schedule: Q07DX002 (ip), vehicle: saline with Tween-80): 97 % of control

Structure (SMILES): OC(CCl)CN1CC[N+]2(CC1)CC[N+]1(CCN(CC(O)CCl)CC1)CC2 (stereo not drawn)
- T/C (dose: 12.5 mg/kg/injection, schedule: Q07DX002 (ip), vehicle: saline): 73 % of control
- T/C (dose: 12.5 mg/kg/injection, schedule: Q07DX003 (ip), vehicle: saline): 90 % of control
- T/C [3]: 124 % of control
- T/C (dose: 25.0 mg/kg/injection, schedule: Q07DX003 (ip), vehicle: saline): 91 % of control
- T/C [4]: 90 % of control and 99 % of control
- T/C (dose: 50.0 mg/kg/injection, schedule: Q07DX003 (ip), vehicle: saline): 76 % of control
- T/C (dose: 100.0 mg/kg/injection, schedule: Q07DX002 (ip), vehicle: saline): 60 % of control
- T/C (dose: 100.0 mg/kg/injection, schedule: Q07DX003 (ip), vehicle: saline): 57 % of control
- T/C (dose: 200.0 mg/kg/injection, schedule: Q07DX003 (ip), vehicle: saline): 54 % of control
- T/C (dose: 400.0 mg/kg/injection, schedule: Q07DX003 (ip), vehicle: saline): 44 % of control
- T/C [9]: 30 % of control

Structure (SMILES): COc1ccc2[nH]c3c(c2c1)CCNC3CC(C)CCC=C(C)C (stereo not drawn)
- T/C [6]: 88 % of control and 97 % of control
- T/C [7]: 82 % of control
- T/C [8]: 57 % of control

Structure (SMILES): CC(=O)Oc1ccccc1C(=O)O
- T/C (dose: 32.0 mg/kg/injection, schedule: Q07DX002 (ip), vehicle: saline with Tween-80): 102 % of control
- T/C (dose: 64.0 mg/kg/injection, schedule: Q07DX002 (ip), vehicle: saline with Tween-80): 53 % of control
- T/C (dose: 72.0 mg/kg/injection, schedule: Q07DX002 (ip), vehicle: saline with Tween-80): 122 % of control
- T/C (dose: 128.0 mg/kg/injection, schedule: Q07DX002 (ip), vehicle: saline with Tween-80): 76 % of control
- T/C (dose: 144.0 mg/kg/injection, schedule: Q07DX002 (ip), vehicle: saline with Tween-80): 118 % of control
- T/C (dose: 256.0 mg/kg/injection, schedule: Q07DX002 (ip), vehicle: saline with Tween-80): 97 % of control
- T/C (dose: 518.0 mg/kg/injection, schedule: Q07DX002 (ip), vehicle: saline with Tween-80): 90 % of control
- T/C (dose: 1152.0 mg/kg/injection, schedule: Q07DX002 (ip), vehicle: saline with Tween-80): 118 % of control

Structure (SMILES): Nc1ccc(S(=O)(=O)c2ccc(N)cc2)cc1
- T/C (dose: 6.25 mg/kg/injection, schedule: Q07DX002 (ip), vehicle: saline with Tween-80): 154 % of control
- T/C [10]: 111 % of control
- T/C [11]: 85 % of control and 92 % of control
- T/C (dose: 56.0 mg/kg/injection, schedule: Q07DX002 (ip), vehicle: saline with Tween-80): 109 % of control
- T/C (dose: 450.0 mg/kg/injection, schedule: Q07DX002 (ip), vehicle: saline with Tween-80): 87 % of control
- T/C (dose: 900.0 mg/kg/injection, schedule: Q07DX002 (ip), vehicle: saline with Tween-80): 71 % of control

Structure (SMILES): Cc1cc(=O)c2cccc(CC(=O)O)c2o1
- T/C [1]: 119 % of control
- T/C [2]: 114 % of control
- T/C [12]: 76 % of control

Structure (SMILES): Cc1ccccc1N(CC1CO1)CC1CO1 (stereo not drawn)
- T/C (dose: 25.0 mg/kg/injection, schedule: Q07DX002 (ip), vehicle: saline with Tween-80): 81 % of control
- T/C [11]: 104 % of control
- T/C (dose: 100.0 mg/kg/injection, schedule: Q07DX002 (ip), vehicle: saline with Tween-80): 57 % of control
- T/C [13]: 123 % of control
- T/C [5]: 154 % of control
- T/C [9]: 89 % of control

Structure (SMILES): O=C(CC(=O)C(F)(F)F)c1csc2ccccc12
- T/C [6]: 110 % of control and 90 % of control
- T/C [8]: 76 % of control
- T/C [2]: 62 % of control

Structure (SMILES): CC1c2ccccc2Cn2cc3c(c21)C(=O)c1cccc(OP(=O)(O)OCc2ccccc2)c1C3=O (stereo not drawn)
- T/C (dose: 0.5 mg/kg/injection, schedule: Q01DX012 (ip), vehicle: saline with Tween-80): 62 % of control
- T/C (dose: 1.0 mg/kg/injection, schedule: Q01DX012 (ip), vehicle: saline with Tween-80): 73 % of control
- T/C (dose: 2.0 mg/kg/injection, schedule: Q01DX012 (ip), vehicle: saline with Tween-80): 23 % of control
- T/C (dose: 4.0 mg/kg/injection, schedule: Q01DX012 (ip), vehicle: saline with Tween-80): 28 % of control

Structure (SMILES): CCOC(=O)C(C)(C)Oc1ccc(Cl)cc1
- T/C [10]: 60 % of control
- T/C [11]: 94 % of control and 100 % of control
- T/C [13]: 110 % of control
- T/C (dose: 400.0 mg/kg/injection, schedule: Q07DX002 (ip), vehicle: saline with Tween-80): 86 % of control

Structure (SMILES): Cc1c2oc3c(C)ccc(C(=O)N[C@@H]4C(=O)N[C@H](C(C)C)C(=O)N5CCC[C@H]5C(=O)N(C)CC(=O)N(C)[C@@H](C(C)C)C(=O)O[C@H]4C)c3nc-2c(C(=O)N[C@@H]2C(=O)N[C@H](C(C)C)C(=O)N3CCC[C@H]3C(=O)N(C)CC(=O)N(C)[C@@H](C(C)C)C(=O)O[C@H]2C)c(N)c1=O (I: [aThr][dV]P[Sar][NMeV] / II: [aThr][dV]P[Sar][NMeV]; ester I:1-I:C, II:1-II:C; linker I:N-II:N via Actinocin(9to1))
- T/C (dose: 100.0 micrograms/kg/injection, schedule: Q07DX002 (ip), vehicle: saline + alcohol): 104 % of control
- T/C (dose: 200.0 micrograms/kg/injection, schedule: Q07DX002 (ip), vehicle: saline + alcohol): 77 % of control
- T/C (dose: 400.0 micrograms/kg/injection, schedule: Q07DX002 (ip), vehicle: saline + alcohol): 19 % of control

Structure (SMILES): Cc1cc2nc3[nH]c4ccccc4c3nc2cc1C
- T/C [6]: 164 % of control
- T/C [8]: 199 % of control
- T/C [1]: 172 % of control
- T/C [2]: 220 % of control
- T/C [12]: 223 % of control
